Laboratory results published in US11667649B2, “Heteroaromatic macrocyclic ether chemotherapeutic agents” (Nuvalent, Inc., priority 2020, dated 2023).

System: TPM3-NTRK1-wt IC50 / primary target (e.g. CD74-ROS1-wt) IC50, Ba/F3 cells
Assay: Cell assay TRKA selectivity (TRKA potency divided by primary target potency)
Assay type: cell-based
Details: for TPM3-NTRK1-wt/CD74-ROS1-G2032R: TRKA selectivity ratio: TPM3-NTRK1-wt IC50 / CD74-ROS1-G2032R IC50, Ba/F3 cells; for TPM3-NTRK1-wt/CD74-ROS1-wt: TRKA selectivity ratio: TPM3-NTRK1-wt IC50 / CD74-ROS1-wt IC50, Ba/F3 cells; for TPM3-NTRK1-wt/EML4-ALK-L1196M-G1202R: TRKA selectivity ratio: TPM3-NTRK1-wt IC50 / EML4-ALK-L1196M-G1202R IC50, Ba/F3 cells; for TPM3-NTRK1-wt/EML4-ALK-wt: TRKA selectivity ratio: TPM3-NTRK1-wt IC50 / EML4-ALK-wt IC50, Ba/F3 cells
How it was run: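 IL-3-independent Ba/F3 lines stably expressing TPM3-TRKA or the primary fusion (e.g. CD74-ROS1 wt) were exposed to 3-fold compound dilutions for 72 h. Viability was read by CellTiter-Glo luminescence, with IC50 from four-parameter logistic fit. Selectivity is TPM3-NTRK1 IC50 divided by primary-target IC50, binned A (>30-fold) to D (<1).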

Compound | TPM3-NTRK1-wt/CD74-ROS1-G2032R | TPM3-NTRK1-wt/CD74-ROS1-wt | TPM3-NTRK1-wt/EML4-ALK-L1196M-G1202R | TPM3-NTRK1-wt/EML4-ALK-wt
CCn1ncc2c1-c1cnc(N)c(c1)O[C@H](C)c1cc(F)ccc1-c1nn(C(C)(C)C)cc1C2 [Example 150, (19R)-10-tert-butyl-3-ethyl-16-fluoro-19-methyl-20-oxa-3,4,10,11,23-pentaazapentacyclo[19.3.1.0^2,^6.0^8,^12.0^13,^18]pentacosa-1(24),2(6),4,8,11,13,15,17,21(25),22-decaen-22-amine] | A (bin A for very high selectivity, ratio>30-fold) | A (bin A for very high selectivity, ratio>30-fold) | C (bin C for moderate selectivity, ratio≥1) | B (bin B for high selectivity, ratio>10-fold)
C[C@H]1Oc2cc(cnc2N)-c2c(nnn2CC2CC2)Cc2cc(F)cnc2-c2ccc(F)cc21 [Example 106, (20R)-3-(cyclopropylmethyl)-10,17-difluoro-20-methyl-21-oxa-3,4,5,12,24-pentaazapentacyclo[20.3.1.0^2,^6.0^8,^13.0^14,^19]hexacosa-1(25),2(6),4,8(13),9,11,14,16,18,22(26),23-undecaen-23-amine] | A (bin A for very high selectivity, ratio>30-fold) | A (bin A for very high selectivity, ratio>30-fold) | B (bin B for high selectivity, ratio>10-fold) | A (bin A for very high selectivity, ratio>30-fold)
C[C@H]1Oc2cc(cnc2N)-c2c(nn(C)c2C2CCC2)Cc2ccnn2-c2ccc(F)cc21 [Example 174, (19R)-3-cyclobutyl-16-fluoro-4,19-dimethyl-20-oxa-4,5,11,12,23-pentaazapentacyclo[19.3.1.0^2,^6.0^8,^12.0^13,^18]pentacosa-1(24),2,5,8,10,13,15,17,21(25),22-decaen-22-amine] | B (bin B for high selectivity, ratio>10-fold) | A (bin A for very high selectivity, ratio>30-fold) | C (bin C for moderate selectivity, ratio≥1) | A (bin A for very high selectivity, ratio>30-fold)
C[C@H]1Oc2cc(cnc2N)-c2c(cnn2CC2CC2)Cc2cc(C(F)(F)F)nn2-c2ccc(F)cc21 [Example 91, (19R)-3-(cyclopropylmethyl)-16-fluoro-19-methyl-10-(trifluoromethyl)-20-oxa-3,4,11,12,23-pentaazapentacyclo[19.3.1.0^2,^6.0^8,^12.0^13,^18]pentacosa-1(24),2(6),4,8,10,13,15,17,21(25),22-decaen-22-amine] | A (bin A for very high selectivity, ratio>30-fold) | A (bin A for very high selectivity, ratio>30-fold) | A (bin A for very high selectivity, ratio>30-fold) | A (bin A for very high selectivity, ratio>30-fold)
Nc1ncc2cc1OCc1cc(F)ccc1-n1nc(Cl)cc1Cc1nnn(CC3CC3)c1-2 [Example 110, 10-chloro-3-(cyclopropylmethyl)-16-fluoro-20-oxa-3,4,5,11,12,23-hexaazapentacyclo[19.3.1.0^2,^6.0^8,^12.0^13,^18]pentacosa-1(24),2(6),4,8,10,13,15,17,21(25),22-decaen-22-amine] | A (bin A for very high selectivity, ratio>30-fold) | A (bin A for very high selectivity, ratio>30-fold) | A (bin A for very high selectivity, ratio>30-fold) | A (bin A for very high selectivity, ratio>30-fold)
CC1Oc2cc(cnc2N)-c2c(cnn2CCF)Cn2ccnc2-c2ccc(F)cc21 (centres unmarked) [Example 39, 16-fluoro-3-(2-fluoroethyl)-19-methyl-20-oxa-3,4,8,11,23-pentaazapentacyclo[19.3.1.0^2,^6.0^8,^12.0^13,^18]pentacosa-1(24),2(6),4,9,11,13,15,17,21(25),22-decaen-22-amine] | A (bin A for very high selectivity, ratio>30-fold) | A (bin A for very high selectivity, ratio>30-fold) | C (bin C for moderate selectivity, ratio≥1) | A (bin A for very high selectivity, ratio>30-fold)
CCc1snc2c1-c1cnc(N)c(c1)O[C@H](C)c1cc(F)ccc1-c1nn(C)cc1C2 [Example 88, (19R)-3-ethyl-16-fluoro-10,19-dimethyl-20-oxa-4-thia-5,10,11,23-tetraazapentacyclo[19.3.1.0^2,^6.0^8,^12.0^13,^18]pentacosa-1(24),2,5,8,11,13,15,17,21(25),22-decaen-22-amine] | B (bin B for high selectivity, ratio>10-fold) | A (bin A for very high selectivity, ratio>30-fold) | C (bin C for moderate selectivity, ratio≥1) | A (bin A for very high selectivity, ratio>30-fold)
C[C@H]1Oc2cc(cnc2N)-c2c(nnn2CC2CC2)Cc2cccnc2-c2ccc(F)cc21 [Example 116, (20R)-3-(cyclopropylmethyl)-17-fluoro-20-methyl-21-oxa-3,4,5,12,24-pentaazapentacyclo[20.3.1.0^2,^6.0^8,^13.0^14,^19]hexacosa-1(25),2(6),4,8(13),9,11,14,16,18,22(26),23-undecaen-23-amine] | A (bin A for very high selectivity, ratio>30-fold) | A (bin A for very high selectivity, ratio>30-fold) | A (bin A for very high selectivity, ratio>30-fold) | A (bin A for very high selectivity, ratio>30-fold)
CCc1noc2c1-c1cnc(N)c(c1)O[C@H](C)c1cc(F)cc(F)c1-c1nn(C)cc1C2 [Example 90, (19R)-3-ethyl-14,16-difluoro-10,19-dimethyl-5,20-dioxa-4,10,11,23-tetraazapentacyclo[19.3.1.0^2,^6.0^8,^12.0^13,^18]pentacosa-1(24),2(6),3,8,11,13,15,17,21(25),22-decaen-22-amine] | A (bin A for very high selectivity, ratio>30-fold) | A (bin A for very high selectivity, ratio>30-fold) | C (bin C for moderate selectivity, ratio≥1) | A (bin A for very high selectivity, ratio>30-fold)
C[C@H]1Oc2cc(cnc2N)-c2c(nnn2CC2CC2)Cc2cc(Cl)nn2-c2ccc(F)cc21 [Example 108, (19R)-10-chloro-3-(cyclopropylmethyl)-16-fluoro-19-methyl-20-oxa-3,4,5,11,12,23-hexaazapentacyclo[19.3.1.0^2,^6.0^8,^12.0^13,^18]pentacosa-1(24),2(6),4,8,10,13,15,17,21(25),22-decaen-22-amine] | A (bin A for very high selectivity, ratio>30-fold) | A (bin A for very high selectivity, ratio>30-fold) | B (bin B for high selectivity, ratio>10-fold) | A (bin A for very high selectivity, ratio>30-fold)
CCn1nc2c(c1C#N)-c1cnc(N)c(c1)O[C@H](C)c1cc(F)ccc1-n1nccc1C2 [Example 119, (19R)-22-amino-4-ethyl-16-fluoro-19-methyl-20-oxa-4,5,11,12,23-pentaazapentacyclo[19.3.1.0^2,^6.0^8,^12.0^13,^18]pentacosa-1(24),2,5,8,10,13,15,17,21(25),22-decaene-3-carbonitrile] | D (bin D for low selectivity, ratio<1) | A (bin A for very high selectivity, ratio>30-fold) | D (bin D for low selectivity, ratio<1) | A (bin A for very high selectivity, ratio>30-fold)
CCn1nc(C(F)(F)F)c2c1-c1cnc(N)c(c1)O[C@H](C)c1cc(F)ccc1-c1nn(C)cc1C2 [Example 96, (19R)-3-ethyl-16-fluoro-10,19-dimethyl-5-(trifluoromethyl)-20-oxa-3,4,10,11,23-pentaazapentacyclo[19.3.1.0^2,^6.0^8,^12.0^13,^18]pentacosa-1(24),2(6),4,8,11,13,15,17,21(25),22-decaen-22-amine] | A (bin A for very high selectivity, ratio>30-fold) | A (bin A for very high selectivity, ratio>30-fold) | C (bin C for moderate selectivity, ratio≥1) | A (bin A for very high selectivity, ratio>30-fold)
CCn1nc(Cl)c2c1-c1cnc(N)c(c1)O[C@H](C)c1cc(F)ccc1-n1nc(C)cc1C2 [Example 76, (19R)-5-chloro-3-ethyl-16-fluoro-10,19-dimethyl-20-oxa-3,4,11,12,23-pentaazapentacyclo[19.3.1.0^2,^6.0^8,^12.0^13,^18]pentacosa-1(24),2(6),4,8,10,13,15,17,21(25),22-decaen-22-amine] | A (bin A for very high selectivity, ratio>30-fold) | A (bin A for very high selectivity, ratio>30-fold) | B (bin B for high selectivity, ratio>10-fold) | A (bin A for very high selectivity, ratio>30-fold)
Cc1cc2n(n1)-c1ccc(F)cc1COc1cc(cnc1N)-c1c(cnn1CC1CC1)C2 [Example 126, 3-(cyclopropylmethyl)-16-fluoro-10-methyl-20-oxa-3,4,11,12,23-pentaazapentacyclo[19.3.1.0^2,^6.0^8,^12.0^13,^18]pentacosa-1(24),2(6),4,8,10,13,15,17,21(25),22-decaen-22-amine] | A (bin A for very high selectivity, ratio>30-fold) | A (bin A for very high selectivity, ratio>30-fold) | A (bin A for very high selectivity, ratio>30-fold) | A (bin A for very high selectivity, ratio>30-fold)
